Test results: a compilation of properties of binary mixtures (doi:10.1016/j.molliq.2017.09.070)

Test: xn = mol fraction of the nth substance listed
Details: 100 kPa; for viscosity: 298.1 K

CC1COC(=O)O1 (stereo unspecified) + CCCC[n+]1ccn(C)c1.O=S(=O)([N-]S(=O)(=O)C(F)(F)F)C(F)(F)F
Details | viscosity [mPa·s]
x2 = 0.2 | 7.5
x2 = 0.4 | 11.9
x2 = 0.6 | 20
x2 = 0.8 | 31.4
x2 = 0.9 | 35.4

CCCC[N+]1(C)CCCC1.O=S(=O)([N-]S(=O)(=O)C(F)(F)F)C(F)(F)F + CC1COC(=O)O1
Details | electrical conductivity [S/m]
296.9 K, x1 = 0.4 | 0.781
297.1 K, x1 = 0.6 | 0.543
297.1 K, x1 = 0.9 | 0.347
297.3 K, x1 = 0.2 | 1
299.8 K, x1 = 0.9 | 0.366
299.9 K, x1 = 0.2 | 1.02
299.9 K, x1 = 0.6 | 0.571
302.5 K, x1 = 0.2 | 1.04
302.5 K, x1 = 0.4 | 0.835
302.6 K, x1 = 0.6 | 0.593
302.6 K, x1 = 0.8 | 0.444
302.6 K, x1 = 0.9 | 0.387
305.3 K, x1 = 0.4 | 0.864
305.4 K, x1 = 0.2 | 1.07
305.4 K, x1 = 0.6 | 0.615
305.4 K, x1 = 0.8 | 0.471
305.4 K, x1 = 0.9 | 0.417
307.9 K, x1 = 0.4 | 0.882
307.9 K, x1 = 0.8 | 0.501
308.1 K, x1 = 0.9 | 0.437
308.2 K, x1 = 0.6 | 0.639
308.4 K, x1 = 0.2 | 1.11
310.9 K, x1 = 0.4 | 0.901
310.9 K, x1 = 0.9 | 0.461
311.1 K, x1 = 0.2 | 1.13
311.1 K, x1 = 0.6 | 0.666
313.5 K, x1 = 0.9 | 0.487
313.7 K, x1 = 0.6 | 0.683
316.3 K, x1 = 0.4 | 0.963
316.3 K, x1 = 0.8 | 0.578
316.5 K, x1 = 0.6 | 0.704
316.5 K, x1 = 0.9 | 0.508
319 K, x1 = 0.4 | 0.988
319.2 K, x1 = 0.2 | 1.19
319.2 K, x1 = 0.8 | 0.603
319.2 K, x1 = 0.9 | 0.529
321.9 K, x1 = 0.4 | 1.01
322.1 K, x1 = 0.2 | 1.2
322.1 K, x1 = 0.8 | 0.628
322.3 K, x1 = 0.6 | 0.746
324.6 K, x1 = 0.2 | 1.22
324.7 K, x1 = 0.8 | 0.652
324.9 K, x1 = 0.4 | 1.02
324.9 K, x1 = 0.6 | 0.771
324.9 K, x1 = 0.9 | 0.59
327.2 K, x1 = 0.9 | 0.615
327.4 K, x1 = 0.2 | 1.24
327.4 K, x1 = 0.4 | 1.05
327.4 K, x1 = 0.8 | 0.677
330.1 K, x1 = 0.4 | 1.07
330.3 K, x1 = 0.6 | 0.811
330.4 K, x1 = 0.8 | 0.701
332.9 K, x1 = 0.8 | 0.721
333 K, x1 = 0.2 | 1.27
333 K, x1 = 0.4 | 1.09
333 K, x1 = 0.9 | 0.661
333.2 K, x1 = 0.6 | 0.828
335.5 K, x1 = 0.9 | 0.683
335.7 K, x1 = 0.2 | 1.3
335.9 K, x1 = 0.6 | 0.842
335.9 K, x1 = 0.8 | 0.74
336 K, x1 = 0.4 | 1.12
338.5 K, x1 = 0.4 | 1.13
338.5 K, x1 = 0.9 | 0.706
338.7 K, x1 = 0.6 | 0.864
341.4 K, x1 = 0.4 | 1.16
341.4 K, x1 = 0.9 | 0.734
341.6 K, x1 = 0.2 | 1.32
343.8 K, x1 = 0.8 | 0.804
344 K, x1 = 0.2 | 1.33
344 K, x1 = 0.4 | 1.16
344.2 K, x1 = 0.9 | 0.752
344.4 K, x1 = 0.6 | 0.908
347 K, x1 = 0.2 | 1.34
347 K, x1 = 0.6 | 0.935
347 K, x1 = 0.8 | 0.835
347 K, x1 = 0.9 | 0.781
349.5 K, x1 = 0.8 | 0.849
349.9 K, x1 = 0.2 | 1.36
349.9 K, x1 = 0.9 | 0.808
350.1 K, x1 = 0.6 | 0.951

Details | viscosity [mPa·s]
x1 = 0.2 | 5.5
x1 = 0.4 | 13.7
x1 = 0.6 | 29.8
x1 = 0.8 | 41.3
x1 = 0.9 | 48.1
